From PubChem BioAssay AID1963846 (Molecular Pharmacology Branch, DTP, NCI, 2024)
pIC50: −log10 of the molar value.

System: 454973-116-R2-J3-PDC complex spheroid viability
Experiment: Anticancer human tumor 454973-116-R2-J3-PDC patient-derived pancreatic carcinoma cell line growth inhibition [POLQ]
Conditions: for pIC50: curve of first compound; for viability, T/C: stronger effect = lower value
Protocol: Multicellular complex tumor spheroid response to Polymerase (POL) inhibitors (novobiocin, ART-558, RP6685) in combination with a variety of drugs and investigational agents in selected tumor cell lines
The POL inhibitors (novobiocin, ART-558, and RP6685) were evaluated both individually and in combination with standard of care and investigational anticancer small molecules within a complex spheroid model of solid tumors. . Complex spheroids include a stromal component modeled by human endothelial cells (HUVEC) and fibroblasts modeled by human mesenchymal stem cells (MSCs). The concentration ranges selected for each drug and investigational agent were based upon clinically achievable concentrations if the clinical Cmax of the agent was known.
Compounds. The drugs and investigational agents: novobiocin (NSC847541), ART-558 (NSC835418), RP-6685 (NSC848927), peposertib (NSC802822), ceralasertib (NSC780249), elimusertib (NSC800525), camonsertib (NSC841442), AZD-1390 (NSC803789), olaparib (NSC753686), talazoparib (NSC767125), rucaparib (NSC756644), sotorasib (NSC818433), MRTX-1133 (NSC836407), SN-38 (NSC673596), topotecan (NSC609699), epotoside (NSC141540), doxorubicin (NSC123127), gemcitabine (NSC613327), 5-fluorouracil (NSC19893), paclitaxel (NSC125973), vemurafenib (NSC761431), MSA-2 (NSC828583), SN-011 (NSC837082), adavosertib (NSC754352), prexasertib (NSC758257), carboplatin (NSC241240) and oxaliplatin (NSC266046), were obtained from the National Cancer Institute (NCI) Developmental Therapeutics Program Chemical Repository (21). The FDA-approved anticancer drug set is available from the Developmental Therapeutics Program at https://dtp.cancer.gov/organization/dscb/obtaining/. […] The stock solutions were prepared in dimethyl sulfoxide (DMSO, Sigma-Aldrich, St. Louis, MO, cat. D2650), except for the platinum compounds which were prepared in saline (Quality Biological, Gaithersburg, MD, cat. 114-055-101), at 800-fold the tested concentration and stored at -70 degrees C prior to their use. All drugs and investigational agents were tested over a range starting from a high concentration at or near the clinical Cmax and decreasing in half-log increments. If the clinical Cmax for an agent had not been determined, the highest concentration tested was 10 microM, except for SN-38, which was tested at a high concentration of 1 microM.
Cell Culture. All cells were maintained in an incubator at 37 degrees C and 5% CO2 with 95% humidity. The PDC lines were cultured according to standard operating procedures established by the NCI PDMR (https://pdmr.cancer.gov). Table 3 of the manuscript, lists the cell lines along with the number of the three cell types plated to form the mct-spheroids and media for tumor cell growth. After thawing, all PDC lines, except 997537-175-T-J1-PDC and 415267-285-R-J2-PDC, were cultured in Matrigel-coated flasks prepared with a working solution of 1X Ham's F-12 nutrient mix, without supplementation (Thermo Fisher Scientific, cat. 11765054), 100 U/mL penicillin-streptomycin (Thermo Fisher Scientific, cat. 15140122), and 2.5% Matrigel (Corning Inc., Corning, NY, cat. 354248) for the first three passages. The two PDC lines 997537-175-T-J1-PDC and 415267-285-R-J2-PDC were cultured on uncoated flasks. The 857933-349-R-J2-PDC line was cultured in 6C/Colon 1B media containing advanced DMEM/F-12 (Thermo Fisher Scientific, cat. 12634028), 10 mM HEPES (Thermo Fisher Scientific, cat. 15630080), 1X GlutaMAX supplement (Thermo Fisher Scientific, cat. 35050061), 0.1 mg/mL primocin (InvivoGen, San Diego, CA, cat. ant-pm-2), 10% defined fetal bovine serum, heat inactivated (HyClone Laboratories Inc., Logan, UT, cat. SH30070.03HI), 50% L-WRN conditioned media (ATCC, cat. CRL-3276), 1.25 mM N-Acetyl-L-cysteine (Sigma-Aldrich, cat. A9165), 10 mM nicotinamide (Sigma-Aldrich, cat. N0636), 1X B-27 supplement (Thermo Fisher Scientific, cat. 17504044), 1X N-2 supplement (Thermo Fisher Scientific, cat. […]
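Also: spheroids exposed to drugs for seven days before measurement.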
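For viability, T/C in this document: percent viability relative to DMSO vehicle control wells taken as 100%.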

Q: With `O=C(Nc1ccc(O)c(NS(=O)(=O)c2ccc(F)cc2)c1)c1ccc(-c2ccccc2)cc1` + Nc1ccc(C#CCN(C(=O)Cc2ncc(C(F)(F)F)cc2C(F)(F)F)c2ccc(F)cc2)nn1 as the compound, how does the pIC50 (second compound 0.0316 µM) read?
A: < 5.00

Q: What about the pIC50 (second compound 0.1 µM) of the same compound?
A: < 5.00

Q: What about the pIC50 (second compound 0.316 µM) of the same compound?
A: < 5.00

Q: What about the pIC50 (second compound 1 µM) of the same compound?
A: < 5.00

Q: And the pIC50 (second compound 3.16 µM)?
A: < 5.00

Q: What about the pIC50 (second compound 10 µM) of the same compound?
A: < 5.00

Q: And the viability, T/C (second compound 0.0316 µM, first compound 0.0316 µM)?
A: 109%

Q: And the viability, T/C (second compound 0.0316 µM, first compound 0.1 µM)?
A: 107%

Q: And the viability, T/C (second compound 0.0316 µM, first compound 0.316 µM)?
A: 108%

Q: And the viability, T/C (second compound 0.0316 µM, first compound 1 µM)?
A: 114%

Q: What about the viability, T/C (second compound 0.0316 µM, first compound 3.16 µM) of the same compound?
A: 108%

Q: And the viability, T/C (second compound 0.0316 µM, first compound 10 µM)?
A: 86.5%

Q: And the viability, T/C (second compound 0.1 µM, first compound 0.0316 µM)?
A: 101%

Q: What about the viability, T/C (second compound 0.1 µM, first compound 0.1 µM) of the same compound?
A: 107%

Q: And the viability, T/C (second compound 0.1 µM, first compound 0.316 µM)?
A: 110%

Q: And the viability, T/C (second compound 0.1 µM, first compound 1 µM)?
A: 103%

Q: What about the viability, T/C (second compound 0.1 µM, first compound 3.16 µM) of the same compound?
A: 103%

Q: And the viability, T/C (second compound 0.1 µM, first compound 10 µM)?
A: 89.9%

Q: What about the viability, T/C (second compound 0.316 µM, first compound 0.0316 µM) of the same compound?
A: 105%

Q: What about the viability, T/C (second compound 0.316 µM, first compound 0.1 µM) of the same compound?
A: 104%

Q: And the viability, T/C (second compound 0.316 µM, first compound 0.316 µM)?
A: 109%

Q: What about the viability, T/C (second compound 0.316 µM, first compound 1 µM) of the same compound?
A: 107%

Q: What about the viability, T/C (second compound 0.316 µM, first compound 3.16 µM) of the same compound?
A: 110%

Q: What about the viability, T/C (second compound 0.316 µM, first compound 10 µM) of the same compound?
A: 89.2%

Q: What about the viability, T/C (second compound 1 µM, first compound 0.0316 µM) of the same compound?
A: 110%

Q: What about the viability, T/C (second compound 1 µM, first compound 0.1 µM) of the same compound?
A: 108%

Q: What about the viability, T/C (second compound 1 µM, first compound 0.316 µM) of the same compound?
A: 111%

Q: What about the viability, T/C (second compound 1 µM, first compound 1 µM) of the same compound?
A: 112%

Q: What about the viability, T/C (second compound 1 µM, first compound 3.16 µM) of the same compound?
A: 109%

Q: What about the viability, T/C (second compound 1 µM, first compound 10 µM) of the same compound?
A: 80.9%

Q: And the viability, T/C (second compound 3.16 µM, first compound 0.0316 µM)?
A: 107%

Q: And the viability, T/C (second compound 3.16 µM, first compound 0.1 µM)?
A: 106%

Q: What about the viability, T/C (second compound 3.16 µM, first compound 0.316 µM) of the same compound?
A: 106%

Q: What about the viability, T/C (second compound 3.16 µM, first compound 1 µM) of the same compound?
A: 120%

Q: What about the viability, T/C (second compound 3.16 µM, first compound 3.16 µM) of the same compound?
A: 123%

Q: What about the viability, T/C (second compound 3.16 µM, first compound 10 µM) of the same compound?
A: 86.8%

Q: What about the viability, T/C (second compound 10 µM, first compound 0.0316 µM) of the same compound?
A: 123%

Q: And the viability, T/C (second compound 10 µM, first compound 0.1 µM)?
A: 112%

Q: And the viability, T/C (second compound 10 µM, first compound 0.316 µM)?
A: 112%

Q: And the viability, T/C (second compound 10 µM, first compound 1 µM)?
A: 120%

Q: What about the viability, T/C (second compound 10 µM, first compound 3.16 µM) of the same compound?
A: 109%

Q: And the viability, T/C (second compound 10 µM, first compound 10 µM)?
A: 85.5%
